Converted amounts (≈) assume the structure as drawn. Where a SMILES comes first, the peptide text is derived from it.
Legend:
Test in all cases: microbe, parasite or virus in culture
C. albicans NCPF 3281 = format: cell-based; settings: for Modal MIC50 / Modal MIC90: NCPF 3281, 20 h; for MIC: Candida albicans, NCPF3281, read-out: Modal MIC (antibiogram)
Experimental: (§1) Antimicrobial activity was evaluated against a panel of 18 pathogens consisting of eight Gram-negative strains (E. coli NCTC 12923, E. coli LEC001, Pseudomonas aeruginosa PAO1, P. aeruginosa NCTC 13437, Acinetobacter baumannii ATCC 17978, A. baumannii AYE, Klebsiella pneumoniae M6, K. pneumoniae NCTC 13368), four Gram-positive strains (Staphylococcus aureus ATCC 9144, S. aureus NCTC 13616, S. aureus USA300, S. aureus 1199B) and six fungi (Candida auris TDG 1912, C. albicans NCPF 8018, C. krusei NCPF 3876, C. tropicalis NCPF 8760, and C. parapsilosis NCPF 3209). Pathogens were grown in noncation adjusted Mueller Hinton broth (MHB, for bacteria) or Roswell Park Memorial Institute (RPMI 1640) + 2% glucose (for fungi) at 37 °C with 180 rpm shaking and maintained on solid media (tryptic soy agar for bacteria and Sabouraud dextrose agar for fungi). For an antibiogram, see Suppl.
(§2) The 46 peptides were serially diluted (128 to 2 μg/mL) in media down polypropylene 96-well plates. Bacteria or fungi, diluted from an overnight culture to an OD600 of 0.01, were added to the serially diluted peptides at a 1:1 ratio resulting in a starting cell density of ∼5 × 10^5 CFU/mL. Plates were incubated at 37 °C for 20 h, and the optical density was determined spectrophotometrically at 600 nm. Minimum inhibition concentrations (MICs) were determined from a minimum of three biological repeats and are reported in μg/mL as well as μM. […] The MIC50 or MIC90 is defined as the lowest peptide concentration that results in 50% or 90% growth inhibition over a 20 h treatment period, respectively.

C. glabrata NCPF 8018 = format: cell-based; settings: for Modal MIC50 / Modal MIC90: NCPF 8018, 20 h; for MIC: Nakaseomyces glabratus, NCPF8018, read-out: Modal MIC (antibiogram)
Experimental: as §1, §2

C. krusei NCPF 3876 = format: cell-based; settings: for Modal MIC50 / Modal MIC90: NCPF 3876, 20 h; for MIC: Pichia kudriavzevii, NCPF3876, read-out: Modal MIC (antibiogram)
Experimental: as §1, §2

[1] = test system: C. parapsilosis NCPF 3209; format: cell-based; settings: for Modal MIC50 / Modal MIC90: NCPF 3209, 20 h; for MIC: Lodderomyces parapsilosis, NCPF3209, read-out: Modal MIC (antibiogram)
Experimental: as §1, §2

C. tropicalis NCPF 8760 = format: cell-based; settings: for Modal MIC50 / Modal MIC90: NCPF 8760, 20 h; for MIC: Candida tropicalis, NCPF8760, read-out: Modal MIC (antibiogram)
Experimental: as §1, §2

A. baumannii ATCC 17978 = format: cell-based, Acinetobacter baumannii; settings: ATCC 17978, 20 h
Experimental: as §1, §2

A. baumannii AYE = format: cell-based, Acinetobacter baumannii; settings: AYE, 20 h
Experimental: as §1, §2

[2] = test system: S. aureus (MSSA) ATCC 9144; format: cell-based, Staphylococcus aureus; settings: ATCC 9144, 20 h
Experimental: as §1, §2

E. coli NCTC 12923 = format: cell-based, Escherichia coli; settings: NCTC 12923, 20 h
Experimental: as §1, §2

C. auris TDG 1912 = format: cell-based, Candida auris; settings: Candidozyma auris, TDG1912, read-out: Modal MIC (antibiogram)
Experimental: as §1, §2

| Structure (SMILES) | Modal MIC50 (C. albicans NCPF 3281) [µM] | Modal MIC90 (C. albicans NCPF 3281) [µM] | Modal MIC50 (C. glabrata NCPF 8018) [µM] | Modal MIC90 (C. glabrata NCPF 8018) [µM] | Modal MIC50 (C. krusei NCPF 3876) [µM] | Modal MIC90 (C. krusei NCPF 3876) [µM] | Modal MIC50 [1] [µM] | Modal MIC90 [1] [µM] | Modal MIC50 (C. tropicalis NCPF 8760) [µM] | Modal MIC90 (C. tropicalis NCPF 8760) [µM] | Modal MIC (A. baumannii ATCC 17978) [µM] | Modal MIC (A. baumannii AYE) [µM] | Modal MIC [2] [µM] | Modal MIC (E. coli NCTC 12923) [µM] | MIC (C. auris TDG 1912) [µg/mL] | MIC (C. albicans NCPF 3281) [µg/mL] | MIC (C. glabrata NCPF 8018) [µg/mL] | MIC (C. krusei NCPF 3876) [µg/mL] | MIC [1] [µg/mL] | MIC (C. tropicalis NCPF 8760) [µg/mL] |
| --- | --- | --- | --- | --- | --- | --- | --- | --- | --- | --- | --- | --- | --- | --- | --- | --- | --- | --- | --- | --- |
| CC(C)C[C@H](NC(=O)CNC(=O)[C@H](Cc1ccccc1)NC(=O)[C@H](CCCCN)NC(=O)[C@H](Cc1ccccc1)NC(=O)[C@H](C)NC(=O)[C@@H](N)CCCCN)C(=O)N[C@@H](CCCCN)C(=O)N[C@H](C(=O)N[C@H](C(=O)NCC(=O)N[C@@H](CCCCN)C(N)=O)C(C)C)[C@@H](C)O [CPF-MW-12a] (H-KAFKFGLKTVGK-NH2) | > 95.5 | > 95.5 | > 95.5 | > 95.5 | > 95.5 | > 95.5 | > 95.5 | > 95.5 | > 95.5 | > 95.5 | – | – | – | – | – | – | – | – | – | – |
| CC[C@H](C)[C@H](NC(=O)CNC(=O)[C@H](CCCCN)NC(=O)[C@@H](N)Cc1c[nH]c2ccccc12)C(=O)N[C@@H](CCCNC(=N)N)C(=O)NCC(=O)N[C@@H](Cc1ccc(O)cc1)C(=O)N[C@@H](CCCCN)C(=O)NCC(=O)NCC(=O)N[C@@H](Cc1ccc(O)cc1)C(=O)N[C@@H](CCCCN)C(=O)NCC(=O)N[C@@H](C)C(=O)N[C@@H](Cc1ccccc1)C(=O)N[C@@H](CCCCN)C(=O)N[C@@H](CCC(N)=O)C(=O)N[C@H](C(=O)N[C@@H](CCCCN)C(=O)N[C@@H](Cc1ccc(O)cc1)C(N)=O)[C@@H](C)O [W(Os-C)a] (H-WKGIRGYKGGYKGAFKQTKY-NH2) | > 54.4 | > 54.4 | > 54.4 | > 54.4 | > 54.4 | > 54.4 | > 54.4 | > 54.4 | > 54.4 | > 54.4 | 27.2 | 13.6 | 54.4 | – | – | – | – | – | – | – |
| CC[C@H](C)[C@H](NC(=O)CNC(=O)[C@H](CO)NC(=O)[C@@H](N)Cc1c[nH]c2ccccc12)C(=O)N[C@@H](CCCNC(=N)N)C(=O)NCC(=O)N[C@@H](Cc1ccc(O)cc1)C(=O)N[C@@H](CCCCN)C(=O)NCC(=O)NCC(=O)N[C@@H](Cc1ccc(O)cc1)C(=O)N[C@@H](CCCCN)C(=O)NCC(=O)N[C@@H](CC(C)C)C(=O)N[C@@H](Cc1ccccc1)C(=O)N[C@@H](CCCCN)C(=O)N[C@@H](CCC(N)=O)C(=O)N[C@H](C(=O)N[C@@H](CC(N)=O)C(=O)N[C@@H](Cc1ccc(O)cc1)C(N)=O)[C@@H](C)O [W-OmC-Ca] (H-WSGIRGYKGGYKGLFKQTNY-NH2) | > 54.3 | > 54.3 | > 54.3 | > 54.3 | > 54.3 | > 54.3 | > 54.3 | > 54.3 | > 54.3 | > 54.3 | 54.3 | 54.3 | 54.3 | 54.3 | – | – | – | – | – | – |
| CC[C@H](C)[C@H](NC(=O)[C@H](CCCCN)NC(=O)CNC(=O)[C@@H](N)CC(C)C)C(=O)N[C@@H](C)C(=O)N[C@@H](CCCCN)C(=O)N[C@H](C(=O)NCC(=O)N[C@@H](CC(C)C)C(=O)N[C@@H](CCCCN)C(N)=O)C(C)C [XPF10a] (H-LGKIAKVGLK-NH2) | > 120.6 | > 120.6 | > 120.6 | > 120.6 | > 120.6 | > 120.6 | > 120.6 | > 120.6 | > 120.6 | > 120.6 | – | – | – | – | – | – | – | – | – | – |
| CC[C@H](C)C[C@H](C)CCCCCCCCC(=O)N[C@H]1C[C@@H](O)[C@@H](NCCN)NC(=O)[C@@H]2[C@@H](O)CCN2C(=O)[C@H]([C@H](O)CCN)NC(=O)[C@H]([C@H](O)[C@@H](O)c2ccc(O)cc2)NC(=O)[C@@H]2C[C@@H](O)CN2C(=O)[C@H]([C@@H](C)O)NC1=O [Caspofungin, reference compound] | – | – | – | – | – | – | – | – | – | – | – | – | – | – | 0.03 (≈ 0.0274 µM) | ≤ 0.007 | ≤ 0.007 | ≤ 0.007 | 0.125 (≈ 0.114 µM) | ≤ 0.007 |
| C[C@@H]1[C@H](O)[C@@H](C)/C=C/C=C/C=C/C=C/C=C/C=C/C=C/[C@H](O[C@@H]2O[C@H](C)[C@@H](O)[C@H](N)[C@@H]2O)C[C@@H]2O[C@](O)(C[C@@H](O)C[C@@H](O)[C@H](O)CC[C@@H](O)C[C@@H](O)CC(=O)O[C@H]1C)C[C@H](O)[C@H]2C(=O)O [Amphotericin B, reference compound] | – | – | – | – | – | – | – | – | – | – | – | – | – | – | 0.03 (≈ 0.0325 µM) | 0.015 (≈ 0.0162 µM) | 0.03 (≈ 0.0325 µM) | 0.06 (≈ 0.0649 µM) | ≤ 0.007 | 0.03 (≈ 0.0325 µM) |
| Cc1ccc(Oc2ccccc2-c2csc(N=C3NCCCN3)n2)c(C)c1 [Abafungin, reference compound] | – | – | – | – | – | – | – | – | – | – | – | – | – | – | > 128 | > 128 | > 128 | 0.25 (≈ 0.661 µM) | 0.25 to 0.5 (≈ 0.661 to 1.32 µM) | > 128 |
| OC(Cn1cncn1)(Cn1cncn1)c1ccc(F)cc1F [Fluconazole, reference compound] | – | – | – | – | – | – | – | – | – | – | – | – | – | – | > 128 | 0.06 to 0.125 (≈ 0.196 to 0.408 µM) | 4 (≈ 13.1 µM) | 8 (≈ 26.1 µM) | 0.25 (≈ 0.816 µM) | 16 (≈ 52.2 µM) |
| CC[C@H](C)[C@H](NC(=O)[C@H](CCCCN)NC(=O)[C@H](CC(C)C)NC(=O)[C@H](C)NC(=O)[C@H](C)NC(=O)[C@H](CCCCN)NC(=O)[C@H](CC(C)C)NC(=O)[C@H](C)NC(=O)[C@H](CCCCN)NC(=O)CN)C(=O)NCC(=O)N[C@@H](C)C(=O)N[C@@H](CC(N)=O)C(=O)N[C@H](C(=O)N[C@@H](CC(C)C)C(=O)NCC(=O)NCC(=O)N[C@@H](C)C(=O)N1CCC[C@H]1C(=O)N[C@@H](CCC(N)=O)C(N)=O)C(C)C [CPF-P3-20a] (H-GKALKAALKIGANVLGGAPQ-NH2) | > 65.7 | > 65.7 | > 65.7 | > 65.7 | > 65.7 | > 65.7 | > 65.7 | > 65.7 | > 65.7 | > 65.7 | 65.7 | 65.7 | – | 65.7 | – | – | – | – | – | – |
| C[C@@H](c1ncncc1F)[C@](O)(Cn1cncn1)c1ccc(F)cc1F [Voriconazole, reference compound] | – | – | – | – | – | – | – | – | – | – | – | – | – | – | 1 (≈ 2.86 µM) | ≤ 0.007 | 0.125 (≈ 0.358 µM) | 0.06 (≈ 0.172 µM) | ≤ 0.007 | 0.5 (≈ 1.43 µM) |
| CC(C)C[C@H](NC(=O)CNC(=O)[C@H](Cc1ccccc1)NC(=O)[C@H](CCCCN)NC(=O)[C@H](Cc1ccccc1)NC(=O)[C@H](C)NC(=O)[C@@H](N)CCCCN)C(=O)N[C@@H](CCCCN)C(=O)N[C@H](C(=O)N[C@H](C(N)=O)C(C)C)[C@@H](C)O [CPF-MW-10a] (H-KAFKFGLKTV-NH2) | > 110.8 | > 110.8 | > 110.8 | > 110.8 | > 110.8 | > 110.8 | > 110.8 | > 110.8 | > 110.8 | > 110.8 | – | – | – | – | – | – | – | – | – | – |

Reference: publication PMC11191095, “QSAR Reveals Decreased Lipophilicity of Polar Residues Determines the Selectivity of Antimicrobial Peptide Activity” (ACS Omega, 2024)
